According to patent EP0974573A1, “PHENYLPROPENONE COMPOUNDS AND MEDICINES CONTAINING THE SAME” (Kabushiki Kaisha Yakult Honsha, priority 1997, dated 1998):

System: J774.1 strain, an established cell line of mouse macrophage
Test: Inhibitory effects on the accumulation of cholesterol esters in macrophage (Test 2)
Format: cell-based
Details: J774.1 mouse macrophage, 12 hours incubation with cholesterol liposomes
Description: Inhibitory effects on the accumulation of cholesterol esters in macrophage were tested using J774.1 strain, an established cell line of mouse macrophage.
Metabolism of LDL in endothelial cells or smooth muscle cells causes downregulation of the LDL receptor by excess free cholesterol in the cells, but in a macrophage, uptake of modified lDL takes place via a scavenger receptor. As no regulation is applied to this pathway, cholesterol esters progressively accumulate without any limitation.
It was therefore studied whether or not corydaline would inhibit intracellular accumulation of cholesterol esters by having liposomes, which were formed of […] cholesterol and phosphatidylcholine, uptaken in macrophage cells and then causing them to act on acyl-CoA:cholesterol acyltransferase which existed on rough-surfaced endoplasmic reticula.
The macrophage cells were incubated for 2 days under 5% CO2 on an RPMI 1640 medium (product of NISSUI PHARMACEUTICAL CO., LTD.) which had been added with 10% fetal bovine serum, penicilin (50 U/mℓ) and streptomycin (50 µg/mℓ). Trypsinization was then conducted, and cells attached to the bottom of each well were peeled off and formulated into a cell suspension. The cells were washed with a fresh supply of the above-described culture medium, and the cell solution was then seeded at 2 x 10^6 cells/mℓ on a 24-well multiple well plate ("25820-24", product of CORNING INC.). After incubation at 37°C under 5% CO2 for 37 hours, the culture medium was replaced with a fresh supply of the above-described culture medium and, after a 0.3 M glucose solution (40 µℓ) with cholesterol [80 µg; containing 0.4 µCi of (^3H)-cholesterol] and phosphatidylcholine (160 µg) contained therein and a methanol solution (10 µℓ)with a test sample dissolved therein were added, incubation was conducted for 12 hours. These procedures were carried out aseptically.
After completion of the incubation, cells attached to each bottom were washed 5 times with a serum-free RPMI 1640 medium by a graduated pipet, and isopropanol (1 mℓ) was added to extract intracellular cholesterol and formed cholesterol esters. The extract was coated in its entirety on a silica gel thin layer chromatography ("Art 5553", product of MERCK & Co., INC.) and subsequent to development with a 80:20:2 mixture of hexane, ethyl ether and formic acid, autoradiography was performed.
A section, which contained ^3H-labelled cholesterol esters and cholesterol, was cut off. Its radioactivity was measured by a liquid scintillation counter and compared with a control, whereby a cholesterol ester accumulation inhibition rate was determined.

Compound | IC50 (Mus musculus, J774.1, 12 h) [nM] | IC50 [nM]
COc1cc(/C=C/C(=O)NCc2ccccc2)cc(OC)c1OCc1ccccc1 [Compound 58, N-benzyl-(2E)-3-(3,5-dimethoxy-4-benzyloxyphenyl)-2-propenamide] | 930 | 
COc1cc(/C=C/C(=O)Nc2ccc(C(C)(C)C)cc2)cc(OC)c1OCc1ccccc1 [Compound 69, N-(4-tert-butylphenyl)-(2E)-3-(3,5-dimethoxy-4-benzyloxyphenyl)-2-propenamide] | 28 | 
N-[4-(2,4-dimethylphenyl)-1,4-diazacyclohexyl]-(2E)-3-[3,5-dimethoxy-4-(3-phenyl)propyloxy]-2-propenamide [Compound 23] |  | 32
COc1cc(/C=C/C(=O)Nc2ccccc2)cc(OC)c1OCc1ccccc1 [Compound 76, N-phenyl-(2E)-3-(3,5-dimethoxy-4-benzyloxyphenyl)-2-propenamide] | 490 | 
COc1cc(/C=C/C(=O)Nc2c(C)cc(C)cc2C)cc(OC)c1OCc1ccccc1 [Compound 67, N-(2,4,6-trimethylphenyl)-(2E)-3-(3,5-dimethoxy-4-benzyloxyphenyl)-2-propenamide] | 870 | 
COc1cc(/C=C/C(=O)Nc2ccccc2C(C)(C)C)cc(OC)c1OCc1ccccc1 [Compound 70, N-(2-tert-butylphenyl)-(2E)-3-(3,5-dimethoxy-4-benzyloxyphenyl)-2-propenamide] | 840 | 
COc1cc(/C=C/C(=O)Nc2ccc(Cl)c(Cl)c2)cc(OC)c1OCc1ccccc1 [Compound 81, N-(3,4-dichlorophenyl)-(2E)-3-(3,5-dimethoxy-4-benzyloxyphenyl)-2-propenamide] | 150 | 
COc1cc(/C=C/C(=O)Nc2ccc(OC(C)C)cc2)cc(OC)c1OCc1ccccc1 [Compound 73, N-(4-isopropyloxyphenyl)-(2E)-3-(3,5-dimethoxy-4-benzyloxyphenyl)-2-propenamide] | 31 | 
COc1cc(/C=C/C(=O)NCCc2ccccc2)cc(OC)c1OCc1ccccc1 [Compound 59, N-(2-phenyl)ethyl-(2E)-3-(3,5-dimethoxy-4-benzyloxyphenyl)-2-propenamide] | 620 | 
COc1cc(/C=C/C(=O)Nc2ccc(Oc3ccccc3)cc2)cc(OC)c1OCc1ccccc1 [Compound 85, N-(4-phenoxyphenyl)-(2E)-3-(3,5-dimethoxy-4-benzyloxyphenyl)-2-propenamide] | 26 | 
COc1cc(/C=C/C(=O)NC2CCN(Cc3ccccc3)CC2)cc(OC)c1OCc1ccccc1 [Compound 62, N-[4-(1-benzyl)piperidino]-(2E)-3-(3,5-dimethoxy-4-benzyloxyphenyl)-2-propenamide] |  | 840
COc1cc(/C=C/C(=O)NCCCCc2ccccc2)cc(OC)c1OCc1ccccc1 [Compound 61, N-(4-phenyl)butyl-(2E)-3-(3,5-dimethoxy-4-benzyloxyphenyl)-2-propenamide] | 840 | 
COc1cc(/C=C/C(=O)NCCCc2ccccc2)cc(OC)c1OCc1ccccc1 [Compound 60, N-(3-phenyl)propyl-(2E)-3-(3,5-dimethoxy-4-benzyloxyphenyl)-2-propenamide] | 870 | 
COc1cc(/C=C/C(=O)Nc2ccc(I)cc2)cc(OC)c1OCc1ccccc1 [Compound 80, N-(4-iodophenyl)-(2E)-3-(3,5-dimethoxy-4-benzyloxyphenyl)-2-propenamide] | 43 | 
COc1cc(/C=C/C(=O)Nc2ccc(Br)cc2)cc(OC)c1OCc1ccccc1 [Compound 79, N-(4-bromophenyl)-(2E)-3-(3,5-dimethoxy-4-benzyloxyphenyl)-2-propenamide] | 78 | 
